# pIC50: −log10 of the molar value.
# Columns and labels:
# [1] = system: MT-2 lymphocytes
# [2] = system: HIV; details: cited from earlier work
# [3] = system: noninfected H9 lymphocytes; details: cited from earlier work
# [4] = system: IL-10; details: at 10 μg mL^-1; cited from earlier work
# [5] = system: IL-12; details: at 10 μg mL^-1; cited from earlier work
# [6] = system: tumor necrosis factor-α (TNFα); details: at 10 μg mL^-1; cited from earlier work
# [7] = Cytotoxicity against non-infected MT-2 lymphocytes; details: human
# [8] = system: HIV-1; assay: Inhibition of HIV-1 replication in MT-2 lymphocytes; details: for TI, therapeutic index (CC50/IC50): MT-2 CC50 / HIV-1 IC50
Compound,CC50 [1],"TI, therapeutic index (CC50/IC50) [8]",other results
4-epi-hyperolactone C [compound 16],462 µM,–,–
24-epi-biyouyanagin A [2a],285 µM,–,–
"C=C[C@@]1(C)COC(=O)[C@]12O[C@]1(c3ccccc3)[C@H](C2=O)[C@H]2[C@H]([C@H](C)CCC=C(C)C)CC=C(C)[C@H]21 [2b, biyouyanagin A]",–,7.5,"EC50, inhibition of HIV replication in H9 lymphocytes [2]: 0.798 µg/mL; EC50, noninfected H9 lymphocytes [3]: > 25 µg/mL; LPS-induced cytokine production, IL-10 [4]: 0.03; LPS-induced cytokine production, IL-12 [5]: 0.02; LPS-induced cytokine production, TNFα [6]: 0.48; CC50 [7]: 198 µM; pIC50 ([8]; Human immunodeficiency virus 1, Lymphocyte, read-out: HIV-1 IC50): 4.59"
"Cc1cn([C@H]2C[C@H](N=[N+]=[N-])[C@@H](CO)O2)c(=O)[nH]c1=O [AZT, reference compound]",> 50 µM,>641,–
"C=C[C@@]1(C)COC(=O)[C@]12OC(c1ccccc1)=CC2=O [compound 18, hyperolactone C]",925 µM,32.0,–
